Laboratory results from PubChem BioAssay (NCI).
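Compound exposure: 48 hours, 5 concentrations, 96-well plates. At the GI50, growth is halved. TGI: concentration producing complete growth inhibition.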

What was measured:
Test in all cases: inhibition of tumour cell growth, NCI panel, 48 h
[1] = test system: EKVX NSCLC
[2] = test system: COLO 205 colon
[3] = test system: KM12 colon
[4] = test system: U251 CNS
[5] = test system: A498 renal
[6] = test system: SF-539 CNS
[7] = test system: DU-145 prostate
[8] = test system: T-47D breast
[9] = test system: NCI-H23 lung
[10] = test system: SR leukemia
[11] = test system: UACC-62 melanoma
[12] = test system: MDA-MB-231 breast
[13] = test system: LOX IMVI melanoma
[14] = test system: NCI-H460 lung
[15] = test system: CCRF-CEM leukemia
[16] = test system: SN12C renal
[17] = test system: K-562 leukemia
[18] = test system: OVCAR-5 ovarian
[19] = test system: NCI-H226 lung
[20] = test system: HL-60(TB) leukemia
[21] = test system: 786-0 renal
[22] = test system: RPMI-8226 leukemia
[23] = test system: RXF 393 renal
[24] = test system: MCF7 breast
[25] = test system: OVCAR-8 ovarian
[26] = test system: SK-MEL-5 melanoma
[27] = test system: M14 melanoma
[28] = test system: OVCAR-3 ovarian
[29] = test system: OVCAR-4 ovarian

Q: How did the GI50 [1] turn out when `NCCOc1ncccc1/C=C1\c2ccccc2-c2ccc(F)cc21` was run?
A: Its GI50 is 1350 nM.

Q: And the TGI [1]?
A: Its TGI is 3550 nM.

Q: What about the GI50 [2] of the same molecule?
A: Its GI50 is 1050 nM.

Q: And the TGI [2]?
A: The TGI was 2310 nM.

Q: And the GI50 [3]?
A: The GI50 was 1460 nM.

Q: And the TGI [3]?
A: The TGI was 2980 nM.

Q: What about the GI50 [4] of the same molecule?
A: The GI50 was 525 nM.

Q: What about the TGI [4] of the same molecule?
A: The TGI was 1850 nM.

Q: What about the GI50 [5] of the same molecule?
A: The GI50 was 1610 nM.

Q: And the TGI [5]?
A: Its TGI is 4770 nM.

Q: What about the GI50 [6] of the same molecule?
A: The GI50 was 1490 nM.

Q: What about the TGI [6] of the same molecule?
A: Its TGI is 2870 nM.

Q: And the GI50 [7]?
A: The GI50 was 467 nM.

Q: And the TGI [7]?
A: The TGI was 1890 nM.

Q: And the GI50 [8]?
A: Its GI50 is 687 nM.

Q: And the TGI [8]?
A: The TGI was 2740 nM.

Q: And the GI50 [9]?
A: The GI50 was 631 nM.

Q: And the TGI [9]?
A: The TGI was 2510 nM.

Q: What about the GI50 [10] of the same molecule?
A: Its GI50 is 116 nM.

Q: What about the TGI [10] of the same molecule?
A: The TGI was 2940 nM.

Q: What about the GI50 [11] of the same molecule?
A: The GI50 was 1040 nM.

Q: And the TGI [11]?
A: The TGI was 2380 nM.

Q: What about the GI50 [12] of the same molecule?
A: The GI50 was 1430 nM.

Q: And the TGI [12]?
A: Its TGI is 2940 nM.

Q: What about the GI50 [13] of the same molecule?
A: The GI50 was 598 nM.

Q: What about the TGI [13] of the same molecule?
A: Its TGI is 1980 nM.

Q: And the GI50 [14]?
A: The GI50 was 236 nM.

Q: And the TGI [14]?
A: Its TGI is 1370 nM.

Q: What about the GI50 [15] of the same molecule?
A: Its GI50 is 316 nM.

Q: And the TGI [15]?
A: The TGI was 2390 nM.

Q: What about the GI50 [16] of the same molecule?
A: Its GI50 is 449 nM.

Q: What about the TGI [16] of the same molecule?
A: The TGI was 1710 nM.

Q: What about the GI50 [17] of the same molecule?
A: The GI50 was 994 nM.

Q: What about the TGI [17] of the same molecule?
A: The TGI was 3390 nM.

Q: And the GI50 [18]?
A: The GI50 was 1570 nM.

Q: What about the TGI [18] of the same molecule?
A: Its TGI is 3070 nM.

Q: And the GI50 [19]?
A: The GI50 was 1000 nM.

Q: What about the TGI [19] of the same molecule?
A: The TGI was 2530 nM.

Q: And the GI50 [20]?
A: The GI50 was 340 nM.

Q: And the TGI [20]?
A: Its TGI is 1300 nM.

Q: And the GI50 [21]?
A: The GI50 was 575 nM.

Q: And the TGI [21]?
A: The TGI was 1940 nM.

Q: What about the GI50 [22] of the same molecule?
A: Its GI50 is 1470 nM.

Q: And the TGI [22]?
A: The TGI was 3510 nM.

Q: And the GI50 [23]?
A: The GI50 was 1600 nM.

Q: What about the TGI [23] of the same molecule?
A: The TGI was 3660 nM.

Q: What about the GI50 [24] of the same molecule?
A: The GI50 was 379 nM.

Q: And the TGI [24]?
A: Its TGI is 1680 nM.

Q: And the GI50 [25]?
A: The GI50 was 1080 nM.

Q: What about the TGI [25] of the same molecule?
A: The TGI was 2750 nM.

Q: What about the GI50 [26] of the same molecule?
A: The GI50 was 1360 nM.

Q: And the TGI [26]?
A: Its TGI is 2680 nM.

Q: What about the GI50 [27] of the same molecule?
A: The GI50 was 739 nM.

Q: What about the TGI [27] of the same molecule?
A: The TGI was 2260 nM.

Q: What about the GI50 [28] of the same molecule?
A: The GI50 was 1630 nM.

Q: And the TGI [28]?
A: Its TGI is 3110 nM.

Q: And the GI50 [29]?
A: Its GI50 is 1520 nM.

Q: And the TGI [29]?
A: The TGI was 3470 nM.
